# According to ChEMBL document CHEMBL1134119, “Total synthesis of human chymase inhibitor methyllinderone and structure--activity relationships of its derivatives” (Bioorg Med Chem Lett, 2001):
# Assays:
# [1] = target: T1, Chymase (Homo sapiens, UniProt P23946); experiment: Compound was evaluated for its inhibitory activity against human Serine protease chymase
# T1 sequence (P23946 whole entry): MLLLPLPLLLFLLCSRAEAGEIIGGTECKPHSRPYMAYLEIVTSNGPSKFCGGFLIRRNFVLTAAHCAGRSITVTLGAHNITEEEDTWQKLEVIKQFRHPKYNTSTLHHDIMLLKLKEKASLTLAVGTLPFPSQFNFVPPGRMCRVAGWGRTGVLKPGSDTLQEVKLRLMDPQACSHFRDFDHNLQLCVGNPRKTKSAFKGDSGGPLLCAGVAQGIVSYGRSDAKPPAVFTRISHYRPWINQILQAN
# [2] = target: T1, Chymase; experiment: Compound was evaluated for its inhibitory activity against human chymase
IC50 [1] [µM],IC50 [2] [µM],Structure (SMILES)
40,–,COC(CCc1ccccc1)=C1C(=O)C=CC1=O
–,> 1000,COC(C)=C1C(=O)C=CC1=O
30,–,COC(/C=C/c1ccccc1)=C1C(=O)C(OC)=C(OC)C1=O
